Test results as given in PubChem BioAssay (NCI).
Where “and” joins values, the source holds several entries; their conditions need not be identical. Identical values can stand only once.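 A five-concentration, 48-hour dose response in 96-well plates underlies each endpoint, interpolated linearly between surrounding concentrations. Abbreviation: GI50, concentration required for 50% inhibition of growth. TGI marks complete inhibition of growth.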

Assays:
Test in all cases: growth of human tumour cells (NCI), 48 h
A498 renal = system: A498 renal
COLO 205 colon = system: COLO 205 colon
DMS 114 small cell lung = system: DMS 114 small cell lung
K-562 leukemia = system: K-562 leukemia
SNB-78 CNS = system: SNB-78 CNS
SW-620 colon = system: SW-620 colon
MDA-MB-231 breast = system: MDA-MB-231 breast
NCI/ADR-RES ovarian = system: NCI/ADR-RES ovarian
PC-3 prostate = system: PC-3 prostate
HS 578T breast = system: HS 578T breast

Cc1nc2c(=O)n(C)c(=O)nc-2n(-c2ccc(Cl)cc2)c1C
TGI (A498 renal): > 100 µM
TGI (COLO 205 colon): > 100 µM
TGI (DMS 114 small cell lung): > 100 µM
TGI (K-562 leukemia): > 100 µM
TGI (SNB-78 CNS): > 100 µM
TGI (SW-620 colon): > 100 µM

COc1cccc2c1C(=N)c1c(O)c3c(c(O)c1C2=O)C[C@@](O)(C(C)=O)C[C@@H]3OC1CC(N)C(O)C(C)O1 (stereo partly drawn)
TGI (A498 renal): 3.06 µM and 6.52 µM and 1.88 µM
TGI (COLO 205 colon): 2.29 µM and 4.36 µM and 2.42 µM
TGI (DMS 114 small cell lung): 0.73 µM and 1.46 µM
TGI (K-562 leukemia): 3.34 µM and 14.8 µM and 6.67 µM
GI50 (MDA-MB-231 breast): 0.445 µM
TGI (MDA-MB-231 breast): 2.18 µM
GI50 (NCI/ADR-RES ovarian): 0.466 µM
TGI (PC-3 prostate): 2.98 µM
TGI (SNB-78 CNS): 8.68 µM and 18.9 µM
TGI (SW-620 colon): 4.39 µM and 8.73 µM and 10.5 µM

CC[N+]1(C)CCC(O)(/C=C/c2ccccc2)C(C(=O)/C=C/c2ccccc2)C1 (stereo not drawn)
TGI (A498 renal): 38.9 µM
TGI (COLO 205 colon): 8.19 µM
TGI (DMS 114 small cell lung): 16.9 µM
TGI (HS 578T breast): > 100 µM
TGI (K-562 leukemia): 10.8 µM
TGI (MDA-MB-231 breast): 31 µM
TGI (NCI/ADR-RES ovarian): > 100 µM
TGI (PC-3 prostate): 29.6 µM
TGI (SNB-78 CNS): > 78.7 µM
TGI (SW-620 colon): 6.45 µM

COCC(O)CN1C(N)=NC(O)C1O (stereo not drawn)
TGI (COLO 205 colon): > 100 µM
TGI (DMS 114 small cell lung): > 100 µM
TGI (SNB-78 CNS): > 100 µM
TGI (SW-620 colon): > 100 µM

O=C1[C@@H]2C3C=CC([C@H]4C(=O)N(CO)C(=O)[C@@H]34)[C@@H]2C(=O)N1CO
TGI (A498 renal): > 100 µM
TGI (COLO 205 colon): > 77.8 µM
TGI (DMS 114 small cell lung): > 62.2 µM
TGI (K-562 leukemia): > 100 µM
TGI (SNB-78 CNS): > 100 µM
TGI (SW-620 colon): > 65.5 µM

O=C1c2ccccc2CC1C1(O)C(=O)Nc2c(Cl)cc(Cl)cc21 (stereo not drawn)
TGI (COLO 205 colon): > 100 µM
TGI (DMS 114 small cell lung): 68.8 µM
TGI (K-562 leukemia): > 100 µM
TGI (SNB-78 CNS): > 100 µM
TGI (SW-620 colon): > 100 µM

NCCN.O=N[O-].O=N[O-].O=N[O-].O=N[O-].[Co+3].[K+]
GI50 (A498 renal): > 100 µM
TGI (A498 renal): > 100 µM
GI50 (COLO 205 colon): > 100 µM
TGI (COLO 205 colon): > 100 µM
GI50 (DMS 114 small cell lung): > 100 µM
TGI (DMS 114 small cell lung): > 100 µM
GI50 (K-562 leukemia): > 100 µM
TGI (K-562 leukemia): > 100 µM
GI50 (SNB-78 CNS): > 100 µM
TGI (SNB-78 CNS): > 100 µM
GI50 (SW-620 colon): > 100 µM
TGI (SW-620 colon): > 100 µM

O=C(NC(c1ccccc1)C(O)C(=O)OCc1ccc2c(c1)C(=O)c1ccccc1C2=O)c1ccccc1 (stereo not drawn)
TGI (A498 renal): 15.7 µM
TGI (COLO 205 colon): > 100 µM
TGI (DMS 114 small cell lung): > 100 µM
TGI (HS 578T breast): > 100 µM
TGI (K-562 leukemia): > 100 µM
TGI (MDA-MB-231 breast): 30.6 µM
TGI (NCI/ADR-RES ovarian): 33.9 µM
TGI (PC-3 prostate): 42.1 µM
TGI (SNB-78 CNS): > 92.4 µM
TGI (SW-620 colon): > 100 µM

Cc1nn(C(=O)CC(=O)Nc2ccccc2Cl)c(C)c1N=Nc1ccccc1Cl
TGI (A498 renal): > 100 µM
TGI (COLO 205 colon): > 100 µM
TGI (DMS 114 small cell lung): > 100 µM
TGI (K-562 leukemia): > 100 µM
TGI (SNB-78 CNS): > 100 µM
TGI (SW-620 colon): > 100 µM

O=S(O)CCCSSCCCCSSCCCS(=O)O
TGI (A498 renal): > 100 µM
TGI (COLO 205 colon): > 100 µM
TGI (DMS 114 small cell lung): > 100 µM
TGI (K-562 leukemia): > 100 µM
TGI (SNB-78 CNS): > 100 µM
TGI (SW-620 colon): > 100 µM

O=C(Nc1cccc(Cl)c1)c1cc2cc(N=Nc3ccc(Br)cc3)ccc2oc1=O
TGI (A498 renal): > 100 µM
TGI (COLO 205 colon): > 100 µM
TGI (DMS 114 small cell lung): 56.6 µM
TGI (K-562 leukemia): > 100 µM
TGI (SNB-78 CNS): > 100 µM
TGI (SW-620 colon): > 100 µM

C[CH2][Ge]1([CH2]C)[CH2]CC2(CCN(CCCN(C)C)C2)C[CH2]1
GI50 (A498 renal): 1.64 µM and 1.05 µM
TGI (A498 renal): 3.26 µM and 1.68 µM
GI50 (COLO 205 colon): 0.39 µM and 1.29 µM
TGI (COLO 205 colon): 1.12 µM and 1.77 µM
GI50 (DMS 114 small cell lung): 2.11 µM
TGI (DMS 114 small cell lung): 3.88 µM
GI50 (HS 578T breast): 1.57 µM
TGI (HS 578T breast): 3.3 µM
GI50 (K-562 leukemia): 0.237 µM and 1.11 µM
TGI (K-562 leukemia): 2.36 µM and 5.13 µM
GI50 (MDA-MB-231 breast): 1.46 µM
TGI (MDA-MB-231 breast): 2.96 µM
GI50 (NCI/ADR-RES ovarian): 1.83 µM and 5.51 µM
TGI (NCI/ADR-RES ovarian): 4.58 µM and 13.4 µM
GI50 (PC-3 prostate): 1.8 µM
TGI (PC-3 prostate): 4.44 µM and 1.34 µM
GI50 (SW-620 colon): 1.46 µM and 1.65 µM
TGI (SW-620 colon): 2.89 µM and 2.31 µM

CC(=O)OC12CCCCC1C1(CCCC1)NC2=O (stereo not drawn)
TGI (A498 renal): > 100 µM
TGI (DMS 114 small cell lung): > 100 µM
TGI (K-562 leukemia): > 100 µM
TGI (SNB-78 CNS): > 100 µM
TGI (SW-620 colon): > 100 µM

Cc1ccc(S(=O)(=O)c2ccccn2)cc1
TGI (A498 renal): > 100 µM
TGI (COLO 205 colon): > 100 µM
TGI (DMS 114 small cell lung): > 100 µM
TGI (K-562 leukemia): > 100 µM
TGI (SNB-78 CNS): > 100 µM
TGI (SW-620 colon): > 100 µM

Nc1n[nH]c(=O)c2c1c(Br)cn2C1OC(CO)C(O)C1O (stereo not drawn)
TGI (A498 renal): > 71.2 µM
TGI (COLO 205 colon): 28.1 µM
TGI (DMS 114 small cell lung): 17.8 µM
TGI (K-562 leukemia): > 100 µM
TGI (SNB-78 CNS): > 80.5 µM
TGI (SW-620 colon): > 100 µM

O=C(Cc1nc2ccccc2s1)C(=O)Nc1ccccc1C(F)(F)F
TGI (A498 renal): > 100 µM
TGI (COLO 205 colon): > 100 µM
TGI (DMS 114 small cell lung): > 100 µM
TGI (K-562 leukemia): > 100 µM
TGI (SNB-78 CNS): > 100 µM
TGI (SW-620 colon): > 100 µM

Cc1ccc(S(=O)(=O)NC2(C=O)CCC(C(C)(C)C)CC2)cc1 (stereo not drawn)
TGI (A498 renal): > 100 µM
TGI (COLO 205 colon): 73.3 µM
TGI (DMS 114 small cell lung): 62.8 µM
TGI (K-562 leukemia): 70.8 µM
TGI (SNB-78 CNS): > 100 µM
TGI (SW-620 colon): > 100 µM

COc1ccc2nccc(C3OC(=O)N4CCC(=O)CC34)c2c1 (stereo not drawn)
TGI (A498 renal): > 100 µM
TGI (COLO 205 colon): > 100 µM
TGI (K-562 leukemia): > 100 µM
TGI (SNB-78 CNS): > 100 µM
TGI (SW-620 colon): > 100 µM

CCc1cccc(C(C)C)c1C1C(=O)C(=O)N(c2nc3ccccc3s2)C(=O)C1=O
TGI (A498 renal): > 100 µM
TGI (COLO 205 colon): > 100 µM
TGI (DMS 114 small cell lung): > 100 µM
TGI (K-562 leukemia): > 100 µM
TGI (SNB-78 CNS): > 100 µM
TGI (SW-620 colon): > 100 µM

O=c1c2ccccc2nc(-c2ccccc2Cl)n1NC1OC(CO)C(O)C(O)C1O (stereo not drawn)
TGI (A498 renal): > 100 µM
TGI (COLO 205 colon): > 100 µM
TGI (DMS 114 small cell lung): > 100 µM
TGI (K-562 leukemia): > 100 µM
TGI (SNB-78 CNS): > 100 µM
TGI (SW-620 colon): > 100 µM

S=C(N/N=C/c1ccccc1)NC1CC(c2ccccc2)Oc2ccccc21 (stereo not drawn)
TGI (COLO 205 colon): > 100 µM
TGI (DMS 114 small cell lung): > 100 µM
TGI (K-562 leukemia): > 100 µM
TGI (SNB-78 CNS): 96.1 µM
TGI (SW-620 colon): > 100 µM

O=C1OC2C(O)COC2(OCc2c[nH]c3ccccc23)C1O (stereo not drawn) (tested in a mixture with another compound)
TGI (A498 renal): > 100 µM
TGI (COLO 205 colon): > 100 µM
TGI (DMS 114 small cell lung): > 100 µM
TGI (K-562 leukemia): > 100 µM
TGI (SNB-78 CNS): > 100 µM
TGI (SW-620 colon): > 100 µM

COC(=O)c1c(OC(=O)c2ccccc2)noc1CC(=O)OC1C=CCCC1 (stereo not drawn)
TGI (A498 renal): > 100 µM
TGI (COLO 205 colon): > 100 µM
TGI (DMS 114 small cell lung): > 100 µM
TGI (K-562 leukemia): > 100 µM
TGI (SNB-78 CNS): > 100 µM
TGI (SW-620 colon): > 100 µM

COc1cc(C2C(C(=O)Nc3ccc(Cl)c(Cl)c3)=C(C)NC(C)=C2C(=O)Nc2ccc(Cl)c(Cl)c2)ccc1O
TGI (A498 renal): 28.5 µM
TGI (COLO 205 colon): 30.2 µM
TGI (DMS 114 small cell lung): 24.2 µM
TGI (K-562 leukemia): 26.2 µM
TGI (SNB-78 CNS): 53.5 µM
TGI (SW-620 colon): 29 µM
